Measured values from patent publication US11369613B2, “Salts and solid form of a BTK inhibitor” (PRINCIPIA BIOPHARMA INC., priority 2014, dated 2022).

Assays:
[1] = Stability of the free base on drying (thermal stability); type: physicochemical; details: drying under vacuum, at less than 45° C.
Text: Isolation of compound (I) as described in PCT Application No. PCT/US2013058614 is less than ideal for large scale synthesis and isolation and therefore handling and formulating of the resulting compound can present challenges. In addition, when isolated as described in PCT Application No. PCT/US2013058614, the isolated compound (I) retains a higher percentage of residual solvent after drying under vacuum at ambient temperature than that allowed under the International Conference on Harmonisation of Technical Requirements for Registration of Pharmaceuticals for Human Use (“ICH”) guidelines (e.g., -ICH limit for class 2 solvents ranges between 50-3880 ppm and for class 3 solvents <5000 ppm).
However, the solids obtained by this method contained high residual solvents (3.9 wt % isopropylacetate and 1.7 wt % heptane).

BTK = target: T1, BTK (Canis lupus familiaris, UniProt A0A8I3P3Z9); assay: BTK occupancy in blood in the dog pemphigus foliaceus study; type: in vivo; details: oral 500 mg daily, blood taken 24 hours after the first dose, read-out: level of BTK occupancy
T1 construct: from tissue; host or cells: blood of the treated dog
T1 sequence (A0A8I3P3Z9 1-664): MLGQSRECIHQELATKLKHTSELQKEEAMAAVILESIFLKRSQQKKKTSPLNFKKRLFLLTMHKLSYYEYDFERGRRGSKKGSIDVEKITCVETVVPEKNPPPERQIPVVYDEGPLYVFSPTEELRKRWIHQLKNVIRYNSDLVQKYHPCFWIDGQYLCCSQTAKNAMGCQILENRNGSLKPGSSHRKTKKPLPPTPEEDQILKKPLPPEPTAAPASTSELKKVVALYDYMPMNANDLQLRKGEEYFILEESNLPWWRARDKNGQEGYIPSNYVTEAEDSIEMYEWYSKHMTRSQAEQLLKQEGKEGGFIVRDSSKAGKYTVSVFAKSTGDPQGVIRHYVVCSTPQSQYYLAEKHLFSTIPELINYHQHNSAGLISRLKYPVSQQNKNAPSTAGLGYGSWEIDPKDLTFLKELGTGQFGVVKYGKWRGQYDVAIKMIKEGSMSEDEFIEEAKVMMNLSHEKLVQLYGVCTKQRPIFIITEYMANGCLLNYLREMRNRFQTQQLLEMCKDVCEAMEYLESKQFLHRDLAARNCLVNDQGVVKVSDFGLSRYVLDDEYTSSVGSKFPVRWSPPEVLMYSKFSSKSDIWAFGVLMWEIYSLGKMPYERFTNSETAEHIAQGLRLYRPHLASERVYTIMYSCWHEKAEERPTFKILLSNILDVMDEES

pemphigus foliaceus = assay: Dog pemphigus foliaceus study; type: in vivo
chronic SLE = details: cited from earlier work
[2] = system: ANCA-associated vasculitis; details: cited from earlier work
pemphigus vulgaris = details: cited from earlier work

## CC(C)(C=C(C#N)C(=O)N1CCC[C@@H](n2nc(-c3ccc(Oc4ccccc4)cc3F)c3c(N)ncnc32)C1)N1CCN(C2COC2)CC1 [Compound (I), 2-[(3R)-3-[4-amino-3-(2-fluoro-4-phenoxy-phenyl)pyrazolo[3,4-d]pyrimidin-1-yl]piperidine-1-carbonyl]-4-methyl-4-[4-(oxetan-3-yl)piperazin-1-yl]pent-2-enenitrile]
[1]
  Stability of free base (degradation products during drying): thermal instability
[1]; listed as free base form
  Stability of free base (degradation products during drying): not very stable

## CC(C)(C)/C=C(\C#N)C(=O)N1CCC[C@@H](n2nc(-c3ccc(Oc4ccccc4)cc3F)c3c(N)ncnc32)C1 [(R,E)-2-(3-(4-amino-3-(2-fluoro-4-phenoxy-phenyl)-1H-pyrazolo[3,4-d]-pyrimidin-1-yl)piperidine-1-carbonyl)-4,4-dimethylpent-2-enenitrile]
BTK
  receptor occupancy at 500 mg: ~70%
Pemphigus foliaceus; 30 kg Doberman, oral 500 mg daily, monotherapy
  Time to clinical response (improved eating and ambulation): within three days
Pemphigus foliaceus; dog with pemphigus foliaceus, single agent
  Manifestation of pre-clinical response compared with systemic corticosteroid therapy: as rapid and comparable to that observed with systemic corticosteroid therapy
Pemphigus foliaceus; dog, oral 500 mg daily
  Corticosteroid-like adverse effects (polyuria, polydipsia, polyphagia, weight gain): No well-known corticosteroid-like adverse effects
Pemphigus foliaceus; dog, oral 500 mg daily, four weeks
  Skin lesions by four weeks: completely healed
Pemphigus foliaceus; dog, oral 500 mg daily, one week
  Clinical status at one week follow up visit: improved general health and commencement of pemphigus lesion healing
Pemphigus foliaceus; dog, oral 500 mg daily, two weeks
  Clinical status after two weeks of treatment: general health of the dog was excellent and skin lesions continued to improve
Pemphigus foliaceus; dog, oral 500 mg daily, listed as (R,E)-2-(3-(4-amino-3-(2-fluoro-4-phenoxyphenyl)-1H-pyrazolo [3,4-d]-pyrimidin-1))
  Corticosteroid-like adverse effects (polyuria, polydipsia, polyphagia, weight gain): none of the well-known corticosteroid-like adverse effects

## Belimumab: an anti-Blys antibody
Chronic SLE
  Effect on improvement of chronic SLE: modest and delayed effect on improvement
Chronic SLE; week 40-52
  Patients able to reduce corticosteroid use to <7.5 mg of prednisone: ≤ 21% of patients (Benlysta US Product

## Rituximab: anti-CD20 agent
[2]
  Onset of effect: Rituximab has delayed effect in ANCA-
Pemphigus vulgaris
  Onset of effect: Rituximab has delayed effect in pemphigus
  Time of maximal effect: vulgaris with maximal effect at 8-12 weeks
